Test results taken from US20070037739A1, “Compounds useful in coating stents to prevent and treat stenosis and restenosis” (Medlogics Device Corporation, priority 2003, published 2007).
pIC50: −log10 of the molar value. In brackets after ≈: the same amount, converted by molar mass. Peptide text beside a SMILES is read from it.

Assays:
[1] = tested on: U937 cells; test: TNF-induced DNA fragmentation in U937 cells; format: cell-based
Description: TNF-α-induced apoptosis in U937 monocytic leukemia cells can be used to evaluate the mechanism of apoptosis and its pharmacological manipulation in various diseases, including inflammation. This can be measured by internucleosomal DNA cleavage (Wright, S. C.; Kumar, P.; Tam, A. W.; Shen, N.; Varma, M.; Larrick, J. W. Apoptosis and DNA fragmentation precede TNF-induced cytolysis in U937 cells. J. Cell. Biochem., 1992, 48, 344-355). It has been shown that signal transduction pathways leading to apoptosis depend on the generation of free radicals (Buttke, T. M.; Sandstrom, P. A. Oxidative stress as a mediator of apoptosis. Immunol. Today, 1994, 15, 7-10) and alterations in the intracellular redox status through depletion of […] glutathione (GSH) (Ghibelli, L.; Coppola, S.; Rotilio, G.; Lafavia, E.; Maresca, V.; Ciriolo, M. R. Nonoxidative loss of gluthione in apoptosis via GSH extrusion. Biochem. Biophys. Res. Comm. 1995, 216, 313-320; van den Dobbelsteen, D. J.; Stefen, C.; Nobel, I.; Schlegel, J.; Cotgreave, I. A; Orrenius, S.; Slater, A. R. G. Rapid and specific efflux of reduced glutathione during apoptosis induced by anti-Fas/APO-1 antibody. J. Cell. Biochem., 1996, 271, 15420-15427).

[2] = Balloon-induced intimal injury (restenosis); format: in vivo; conditions: DAA-1 treated animals
Description: Following balloon-induced […] intimal injury, rats were give daily intravenous saline or DAA-I at 15, 30 or 45 pmol/kg×14d.

[3] = target: T1, NADPH oxidase (Homo sapiens, UniProt P04839); conditions: read-out: IC50 to inhibit NADPH oxidase activity; cited from earlier work
T1 sequence (P04839 2-570 limits assumed): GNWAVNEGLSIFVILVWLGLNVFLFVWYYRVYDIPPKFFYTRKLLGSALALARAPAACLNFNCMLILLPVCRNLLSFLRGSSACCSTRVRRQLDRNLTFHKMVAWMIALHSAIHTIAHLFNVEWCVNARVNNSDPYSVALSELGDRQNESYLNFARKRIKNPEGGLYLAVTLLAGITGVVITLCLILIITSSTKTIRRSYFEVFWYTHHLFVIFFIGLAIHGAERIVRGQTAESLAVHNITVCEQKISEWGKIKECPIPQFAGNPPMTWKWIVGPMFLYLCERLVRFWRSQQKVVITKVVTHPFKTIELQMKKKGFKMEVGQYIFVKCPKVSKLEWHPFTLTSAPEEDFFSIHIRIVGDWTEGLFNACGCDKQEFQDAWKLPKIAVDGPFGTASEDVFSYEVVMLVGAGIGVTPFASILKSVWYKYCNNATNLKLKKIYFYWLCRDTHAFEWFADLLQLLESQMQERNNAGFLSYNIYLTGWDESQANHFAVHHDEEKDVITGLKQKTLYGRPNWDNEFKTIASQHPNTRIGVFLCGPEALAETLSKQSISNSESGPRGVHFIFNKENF

[4] = tested on: peripheral blood mononuclear cells (PBMNC); conditions: 100 μg/ml; mycobacterial 60 kDa heat shock protein 5 μg/ml; six RA patients; cited from earlier work
[5] = tested on: PBMNC; conditions: LPS- and PG-stimulated PBMNC, healthy human donors; cited from earlier work
[6] = tested on: neutrophils; conditions: PMA- and zymosan-stimulated neutrophils, healthy human volunteers; cited from earlier work
[7] = injected, 400 mg/kg; cited from earlier work
[8] = tested on: J-774A.1 cells; conditions: cited from earlier work
[9] = tested on: neutrophils; conditions: PMA-stimulated rat neutrophils; cited from earlier work
[10] = tested on: human cartilage; conditions: in vitro; cited from earlier work
[11] = cited from earlier work
[12] = cited from earlier work; remark: listed apart in the source
[13] = 12 mg/d through inhalation for four days; cited from earlier work
[14] = tested on: pulmonary macrophages; conditions: cited from earlier work
[15] = tested on: peritoneal macrophages; conditions: cited from earlier work

For COc1cc(C(C)=O)ccc1OC(C)=O [Compound 1, 4-Acetoxy-3-methoxyacetophenone], the “IC50 (μg/ml), protective effect against TNF-induced DNA fragmentation” value (“IC50 (μg/ml), protective effect” for short) [1] was 43 µg/mL (≈ 207 µM) and the “potency compared with apocynin (from IC50 values)” value [1] was “more potent than apocynin”.
With COc1cc(C(C)=O)cc([N+](=O)[O-])c1O [Compound 2, 4-Hydroxy-3-methoxy-5-nitroacetophenone] the “IC50 (μg/ml), protective effect” value [1] was 90 µg/mL (≈ 426 µM).
For COc1cc(C(C)=O)cc(N)c1O.Cl [Compound 3, 5-Amino-4-hydroxy-3-methoxyacetophenone hydrochloride], the “IC50 (μg/ml), protective effect” value [1] was 80 µg/mL.
For COc1cc(C(C)=O)cc(NC(C)=O)c1O [Compound 4, 5-Acetoamido-4-hydroxy-3-methoxyacetophenone], the “IC50 (μg/ml), protective effect” value [1] was 37 µg/mL (≈ 166 µM) and the “potency compared with apocynin (from IC50 values)” value [1] was “more potent than apocynin”.
In the case of CC[C@H](C)[C@H](NC(=O)[C@H](Cc1ccc(O)cc1)NC(=O)[C@@H](NC(=O)[C@@H](N)CCCNC(=N)N)C(C)C)C(=O)N[C@@H](Cc1c[nH]cn1)C(=O)N1CCC[C@H]1C(=O)N[C@@H](Cc1ccccc1)C(=O)N[C@@H](Cc1c[nH]cn1)C(=O)N[C@@H](CC(C)C)C(=O)O [DAA-I, Arg-Val-Tyr-IIe-His-pro-Phe-His-Leu] (H-RVYIHPFHL-OH), the toxicity [2] was “no appreciable toxicity was detected”.
For COc1cc(C(C)=O)ccc1O [apocynin], the pIC50 [3] is given as 5.02, the “inhibition of production of IL-1” value [4] is given as “greater than 50%” and the “inhibition of production of TNF-α” value [4] is given as “greater than 50%”. For the same compound, the TNF-α release [5] was “dose-dependently inhibited”, the “concentration inhibiting ROS production by 50%” value [6] was 4 µg/mL and the “obvious effects on the mice” value [7] was “no obvious effects”. For the same compound, the “release of superoxide to the medium” value ([8]; 100 μg/ml, cells+LDL+Cu2+ or cells+PMA) was “completely blocked”, the “macrophage-released superoxides, apocynin alone” value ([8]; non-activated cells) was 0.2 nmol superoxide/10^6 cells and the “production of ROS” value [9] was “competitively inhibited, in a dose-dependent manner”. For the same compound, the “cartilage destruction and adverse effects on cartilage” value [10] was “can counteract human RA-inflammation-mediated cartilage destruction without having adverse effects on human cartilage”, the “joint inflammation at lowest dose” value ([11]; 24 μg/kg) was “protected the animals against joint inflammation” and the “joint swelling at highest dose” value ([11]; 200 μg/ml) was “again inhibited joint swelling”. For the same compound, the joint inflammation ([11]; CIA rats, overall) was “significantly inhibited”, the IL-6 production ([11]; CIA rats) was “reduced IL-6 production” and the “swelling after termination of treatment” value ([11]; CIA rats) was “did not result in a flare-up of the swelling”. The IC50 ([1]; Homo sapiens, U-937, read-out: IC50 (μg/ml), protective effect against TNF-induced DNA fragmentation) was 64 µg/mL (≈ 385 µM), the “decrease of glutathione levels induced by ozone exposure” value ([12]; 5 mg/kg orally, pretreatment) was “almost completed inhibited” and the “mean redox value (glutathione)” value ([12]; apocynin pretreatment, air 15.4%, ozone 32.0%) was 18.3%. The side effects [13] was “no side effects”, the “production of prostaglandin E2” value [14] was “increases the production of prostaglandin E2” and the oxidative burst ([15]; apocynin 10 mM 25 min before myelin and zymosan, controls 75%) was “about 5%”. The phagocytosis of myelin ([15]; rat peritoneal macrophages) was “dose-dependently inhibited”.
